Measurements reported in ChEMBL document CHEMBL4130585, “Pimentelamines A-C, Indole Alkaloids Isolated from the Leaves of the Australian Tree Flindersia pimenteliana” (J Nat Prod, 2017).
Active and inactive are the calls of the source. No cut-off for these calls is given here.

What was measured:
Plasmodium falciparum [1] = assay: Antimalarial activity against chloroquine-resistant Plasmodium falciparum Dd2 after 72 hrs by DAPI staining based confocal microplate imaging method; format: functional, organism-based; conditions: Dd2, 72 h
Plasmodium falciparum [2] = assay: Antimalarial activity against chloroquine-sensitive Plasmodium falciparum 3D7 after 72 hrs by DAPI staining based confocal microplate imaging method; format: functional, organism-based; conditions: 3D7, 72 h
HEK293 [3] = assay: Cytotoxicity against HEK293 cells after 72 hrs by resazurin dye based assay; format: cell-based; conditions: Homo sapiens, HEK293, 72 h
[4] = Selectivity index, ratio of IC50 for HEK293 cells to IC50 for chloroquine-sensitive Plasmodium falciparum 3D7; format: toxicity; conditions: human, read-out: Ratio IC50
Plasmodium falciparum [5] = assay: Growth inhibition of chloroquine-resistant Plasmodium falciparum Dd2 at 40 uM after 72 hrs by DAPI staining based confocal microplate imaging method relative to control; format: functional
Plasmodium falciparum [6] = assay: Antimalarial activity against chloroquine-sensitive Plasmodium falciparum 3D7 at 40 uM after 72 hrs by DAPI staining based confocal microplate imaging method; format: functional, organism-based
HEK293 [7] = assay: Cytotoxicity against HEK293 cells at 40 uM after 72 hrs by resazurin dye based assay; format: cell-based; conditions: human, hek293, 72 h
Plasmodium falciparum [8] = assay: Antimalarial activity against chloroquine-sensitive Plasmodium falciparum 3D7 at 5 uM after 72 hrs by DAPI staining based confocal microplate imaging method relative to control; format: functional

| Structure (SMILES) | IC50 (Plasmodium falciparum [1]) [nM] | IC50 (Plasmodium falciparum [2]) [nM] | IC50 (HEK293 [3]) [nM] | selectivity ratio [4] | growth inhibition (GI) (Plasmodium falciparum [5]) | Activity (Plasmodium falciparum [6]) | Activity (HEK293 [7]) | Activity (Plasmodium falciparum [8]) [%] | inhibition of growth at 40 µM (Plasmodium falciparum [5]; Dd2, 72 h, read-out: GI) [%] |
| --- | --- | --- | --- | --- | --- | --- | --- | --- | --- |
| CNCCc1c([C@@H]2[C@@H]3[C@H](C=C(C)CC3(C)C)[C@]34Nc5ccccc5[C@]23CCN4C)[nH]c2ccccc12 | 220 | 310 | 5000 | 16 |  |  |  |  |  |
| CC1=C[C@@H]2c3c(CCN(C)C)c4ccccc4n3[C@@H](c3[nH]c4ccccc4c3CCN(C)C)[C@@H]2C(C)(C)C1 | 190 | 670 | 5400 | 8 |  |  |  |  |  |
| CN(C)CCc1c(C[C@@H]2O[C@]34OC[C@H](O)[C@H]3OC(=O)[C@]4(O)C2(C)C)[nH]c2ccccc12.O=C(O)C(F)(F)F |  |  |  |  | inactive | inactive | Non-Toxic |  |  |
| COc1ccc(C[C@H](N)C(=O)N[C@H]2[C@@H](O)[C@H](n3cnc4c(N(C)C)ncnc43)O[C@@H]2CO)cc1 [PUROMYCIN] | 32 |  | 450 to 690 | 8 |  |  |  | 100 |  |
| CNCCc1c(C[C@@H]2O[C@]34OC[C@H](O)[C@H]3OC(=O)[C@]4(O)C2(C)C)[nH]c2ccccc12.O=C(O)C(F)(F)F |  |  |  |  | inactive | inactive | Non-Toxic |  |  |
| C[C@H]1[C@H](OC(=O)CCC(=O)O)O[C@@H]2O[C@@]3(C)CC[C@H]4[C@H](C)CC[C@@H]1[C@@]24OO3 [ARTESUNATE] |  | 1 | 7000 | 7990 |  |  |  |  |  |
| C[C@H]1[C@@H](O)O[C@@H]2O[C@@]3(C)CC[C@H]4[C@H](C)CC[C@@H]1[C@@]24OO3 [ARTENIMOL] | 0.4 | 0.3 | 9900 | 38100 |  |  |  |  |  |
| CC1(C)[C@H](Cc2[nH]c3ccccc3c2CC[N+](C)(C)O)O[C@]23OC[C@H](O)[C@H]2OC(=O)[C@]13O.O=C([O-])C(F)(F)F | 2700 | 3600 |  | > 6 |  |  | Non-Toxic |  |  |
| CC1=C[C@H]2[C@@H]([C@@H](c3[nH]c4ccccc4c3CCN(C)C)[C@]34CCN(C)[C@]23Nc2ccccc24)C(C)(C)C1 | 340 | 510 | 7100 | 14 |  |  |  |  |  |
| COc1ccc2nc3cc(Cl)ccc3c(Nc3cc(CN4CCCC4)c(O)c(CN4CCCC4)c3)c2n1 [PYRONARIDINE] | 140 |  | 2900 | 239 |  |  |  |  |  |
| CCc1nc(N)nc(N)c1-c1ccc(Cl)cc1 [PYRIMETHAMINE] |  | 6 | 690 | 120 |  |  |  |  | 59 |
| CCN(CC)CCCC(C)Nc1ccnc2cc(Cl)ccc12 (stereo not drawn) [CHLOROQUINE] |  |  | 490 |  |  |  |  |  |  |
| C[C@@H]1O[C@@H](Oc2c(-c3ccc(O)c(O)c3)oc3cc(O)cc(O)c3c2=O)[C@H](O)[C@H](O)[C@H]1O [QUERCITRIN] |  |  |  |  | inactive | inactive | Non-Toxic |  |  |
| CC1(C)C=Cc2c(cc3oc(-c4ccc(O)cc4)cc(=O)c3c2O)O1 | 2300 | 3400 |  | > 6 |  |  | Non-Toxic |  |  |
